According to the supplement of paper PMC10307832:

Compound: CC1(C)CCC(CN2CCN(c3ccc(C(=O)NS(=O)(=O)c4ccc(NCC5CCOCC5)c([N+](=O)[O-])c4)c(Oc4cnc5[nH]ccc5c4)c3)CC2)=C(c2ccc(Cl)cc2)C1 [Venetoclax]
Assay: relative viability (nuclei count vs DMSO), 5 days (fraction); higher = more cells survive
Details: 0.01 µM
Outline: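 Five library-drug doses spaced by √10 were pinned onto vehicle-anchored 1536-well plates of lung cancer cell lines that had been kept overnight at 37 °C. Cells went 5 days without medium change, then were fixed, permeabilised and Hoechst-stained together, imaged at 4× and counted by MetaXpress. Viability is the ratio of treated-well to vehicle-well nuclei, taken as a median over plates. Plates required control CV below 25% and at least one doubling.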

| Cell Line | relative viability |
| --- | --- |
| EMC-BAC-2 | 0.977 |
| NCI-H2126 | 1 |
| Calu-6 | 1.03 |
| HCC-44 | 0.935 |
| NCI-H1734 | 0.906 |
| NCI-H650 | 0.934 |
| LK-2 | 0.947 |
| NCI-H2228 | 0.942 |
| SK-MES-1 | 0.961 |
| HARA | 0.903 |
| COR-L23 | 0.979 |
| COR-L 105 | 0.946 |
| LC-2-ad | 0.942 |
| LXF-289 | 1.17 |
| NCI-H2170 | 0.863 |
| NCI-H322M | 1.05 |
| IA-LM | 0.813 |

| Cell Line | relative viability |
| --- | --- |
| HCC-78 | 1.1 |
| A549 | 0.984 |
| NCI-H1299 | 1.02 |
| BEN | 1.03 |
| HCC-15 | 0.937 |
| HCC-827 | 1.03 |
| NCI-H460 | 0.98 |
| LU99A | 1.02 |
| NCI-H2085 | 0.873 |
| A-427 | 0.892 |
| NCI-H520 | 0.923 |
| NCI-H838 | 0.965 |
| NCI-H1792 | 0.892 |
| NCI-H596 | 1.01 |
| NCI-H3122 | 1.06 |
| NCI-H1395 | 1.01 |
| 201T | 0.975 |

Same assay, conditions: 0.03162 µM

| Cell Line | relative viability |
| --- | --- |
| EMC-BAC-2 | 1.14 |
| NCI-H2126 | 1.07 |
| Calu-6 | 1.06 |
| HCC-44 | 0.955 |
| NCI-H1734 | 1.03 |
| NCI-H650 | 1.05 |
| LK-2 | 1.11 |
| NCI-H2228 | 1.03 |
| SK-MES-1 | 1.05 |
| HARA | 1.08 |
| COR-L23 | 1.03 |
| COR-L 105 | 0.917 |
| LC-2-ad | 1.01 |
| LXF-289 | 1.02 |
| NCI-H2170 | 0.944 |
| NCI-H322M | 0.982 |
| IA-LM | 1.05 |

| Cell Line | relative viability |
| --- | --- |
| HCC-78 | 1.21 |
| A549 | 0.99 |
| NCI-H1299 | 1.03 |
| BEN | 1.09 |
| HCC-15 | 1.07 |
| HCC-827 | 1.07 |
| NCI-H460 | 0.965 |
| LU99A | 1.01 |
| NCI-H2085 | 1.08 |
| A-427 | 1.14 |
| NCI-H520 | 0.994 |
| NCI-H838 | 1.05 |
| NCI-H1792 | 1.06 |
| NCI-H596 | 0.972 |
| NCI-H3122 | 1 |
| NCI-H1395 | 0.99 |
| 201T | 0.989 |

Same assay, conditions: 0.1 µM

| Cell Line | relative viability |
| --- | --- |
| EMC-BAC-2 | 0.945 |
| NCI-H2126 | 0.992 |
| Calu-6 | 0.985 |
| HCC-44 | 0.983 |
| NCI-H1734 | 0.868 |
| NCI-H650 | 0.876 |
| LK-2 | 0.929 |
| NCI-H2228 | 0.86 |
| SK-MES-1 | 0.993 |
| HARA | 0.926 |
| COR-L23 | 0.967 |
| COR-L 105 | 0.834 |
| LC-2-ad | 0.978 |
| LXF-289 | 0.944 |
| NCI-H2170 | 0.904 |
| NCI-H322M | 0.899 |
| IA-LM | 0.886 |

| Cell Line | relative viability |
| --- | --- |
| HCC-78 | 1.01 |
| A549 | 0.994 |
| NCI-H1299 | 1.01 |
| BEN | 0.887 |
| HCC-15 | 0.929 |
| HCC-827 | 0.924 |
| NCI-H460 | 0.941 |
| LU99A | 0.84 |
| NCI-H2085 | 1.03 |
| A-427 | 0.901 |
| NCI-H520 | 0.828 |
| NCI-H838 | 0.948 |
| NCI-H1792 | 0.918 |
| NCI-H596 | 0.941 |
| NCI-H3122 | 0.967 |
| NCI-H1395 | 0.769 |
| 201T | 0.982 |

Same assay, conditions: 0.3162 µM

| Cell Line | relative viability |
| --- | --- |
| EMC-BAC-2 | 1.15 |
| NCI-H2126 | 0.996 |
| Calu-6 | 0.991 |
| HCC-44 | 0.974 |
| NCI-H1734 | 0.957 |
| NCI-H650 | 1.1 |
| LK-2 | 0.938 |
| NCI-H2228 | 0.891 |
| SK-MES-1 | 1 |
| HARA | 1.06 |
| COR-L23 | 0.999 |
| COR-L 105 | 1.02 |
| LC-2-ad | 1 |
| LXF-289 | 0.956 |
| NCI-H2170 | 0.91 |
| NCI-H322M | 1.06 |
| IA-LM | 0.915 |

| Cell Line | relative viability |
| --- | --- |
| HCC-78 | 0.959 |
| A549 | 0.969 |
| NCI-H1299 | 1.01 |
| BEN | 0.999 |
| HCC-15 | 0.902 |
| HCC-827 | 1.02 |
| NCI-H460 | 0.989 |
| LU99A | 0.987 |
| NCI-H2085 | 0.969 |
| A-427 | 1.08 |
| NCI-H520 | 0.971 |
| NCI-H838 | 0.957 |
| NCI-H1792 | 0.98 |
| NCI-H596 | 0.925 |
| NCI-H3122 | 0.962 |
| NCI-H1395 | 1.11 |
| 201T | 0.984 |

Same assay, conditions: 1 µM

| Cell Line | relative viability |
| --- | --- |
| EMC-BAC-2 | 0.96 |
| NCI-H2126 | 0.953 |
| Calu-6 | 0.973 |
| HCC-44 | 0.929 |
| NCI-H1734 | 0.912 |
| NCI-H650 | 0.855 |
| LK-2 | 1.02 |
| NCI-H2228 | 0.965 |
| SK-MES-1 | 0.902 |
| HARA | 0.993 |
| COR-L23 | 0.911 |
| COR-L 105 | 0.873 |
| LC-2-ad | 0.964 |
| LXF-289 | 0.883 |
| NCI-H2170 | 0.877 |
| NCI-H322M | 0.938 |
| IA-LM | 0.886 |
